This is an account of results in patent US9072293B2, “Cyclopropenes and method for applying cyclopropenes to agricultural products or crops” (Erum Biotechnologies Inc., priority 2010, dated 2015).

Values joined by “and” are separate entries in the source; they are usually repeats but may differ in a detail not shown here. Identical values can stand only once.

The nature of data set [1]: Relative chemical stability of cyclopropenes measured by 1H-NMR. Conditions: for Stability (relative chemical stability, based on cyclopropenes having a chain length of 1): 1H-NMR, CDCl3, stored at −20° C. or room temperature, relative to chain length 1. The format is physicochemical. The source says:
A variety of analysis methods can be used to analyze the derivatives of Formula 6, since the absorbance of cyclopropenes containing an aryl group can be easily measured in the UV range. It can be confirmed that the chemical stability of the derivatives increases, when the length of chains to link an aryl ring to a cyclopropene ring is 2 or more. […] It is supposed that the stability of cyclopropenes increase due to the fact that π electrons of aryl groups affect π electrons of cyclopropenes.
The following Table 1 summarizes the relative chemical stability of cyclopropenes having a chain length of 2, 3, 4 or 5, based on the chemical stability of cyclopropenes having a chain length of 1. In the case of cyclopropene having a chain length of 1, the structure thereof can be confirmed via ^1H-NMR within one hour following synthesis (degraded to a level of 50% or more within one hour at 30° C.). In the case of cyclopropene having a chain length of zero, synthesis thereof was attempted in accordance with the present invention, but was impossible by a conventional method. Meanwhile, in the case of cyclopropenes having a chain length of 2 or more, the structure thereof can be precisely confirmed by ^1H-NMR as well as ^13C-NMR. The stability of these cyclopropenes was measured by ^1H-NMR while NMR cells (CDCl3) were stored at −20° C. or room temperature. In particular, cyclopropenes having chains of 3 or more were so stable that their half-life reached 5 days or longer at −20° C. or lower. In ^1H-NMR analysis, the stability was evaluated by comparing integral values at 4 to 6.5 ppm (1H) and 0.8 to 0.9 ppm (2H), characteristic peaks of 1-alkylcyclopropenes, using a small amount of 1,1,3,3-tetramethylurea (2.80 ppm) as an internal standard. Furthermore, the stability was also qualitatively evaluated by comparing integral value of the peak newly generated adjacent to the peak of the olefin proton of cyclopropene ring, as a 1-alkylcyclopropene compound is decomposed.

Data set [2] concerns tomato. Kind of data set: Experimental Example 1: Efficacy test on tomato using emulsion (reddening grade). The format is in vivo. Details: key: an area in which the surface of tomato was colored in pink was 10% or less; an area in which the surface of tomato was completely colored in red was 10 to 40%; 2: an area in which the surface of tomato was completely colored in red was 40 to 70%; 3: an area in which the surface of tomato was completely colored in red was 70% or more and the bottom area remained green; 4: an area in which the surface of tomato was most colored in red and only a part of (0 to 10%) the bottom area remained green; 5: the surface of tomato did not entirely color in green. Conditions: individual tomatoes n=4. On the procedure: In situ, a 1.0 mM 1-octylcyclopropene formulation was prepared using (trans)-1-octyl-1-(methanesulfonyloxy)-2-(trimethylsilyl)cyclopropane of Preparation Example 10 in the same manner as in Example 7. This solution was diluted to 1 to 100 times prior to use, as necessary. Experimental Example 1: Efficacy test on tomato using emulsion 1.0 mM formulations of five agents such as 1-(2-phenylethyl)cyclopropene, 1-(3-phenylpropyl)cyclopropene, 1-(4-phenylbutyl)cyclopropene, 1-(5-phenylpentyl)cyclopropene and 1-hexylcyclopropene were prepared in the same manner as in Example 1, and 1.0 mM and 100 μM solutions were prepared therefrom. Then, the effects of the solutions were compared with non-treated groups and control groups in which a surfactant or a stabilizing agent (sodium dodecylbenzenesulfonate or tristyrenylphenykethoxy)12ethanol) is dissolved.
Tomatoes whose top end began to turn pink were screened, harvested and divided into 12 groups (n=4) in total, i.e., non-treated groups, control groups (surfactant) and agent groups with different concentrations such as 100 μM and 1.0 mM. Tomatoes were treated with the prepared agent formulation using a household sprayer such that the surface thereof was saturated. The tomatoes were stood at room temperature (25-30° C.) for 3 days and a reddening level thereof was evaluated based on grades of 0 to 5.
(§1) At this time, the tops of tomatoes most early turned red, while the bottoms thereof most lately turned red. For this reason, in order to accurately evaluate the difference in reddening, the coloring evaluated was based on the area of red color, rather than the color of tomatoes. […] Accordingly, the grade level is proportional to the rate at which the tomatoes ripened.

Data set [3] deals with tomato. The data set is described as follows: Experimental Example 2: Efficacy test on tomato using oil based formulation (reddening grade). Conditions: 1.0 mM oil-based formulation, individual tomatoes n=4. The format is in vivo. Also on record: key: an area in which the surface of tomato was colored in pink was 10% or less; an area in which the surface of tomato was completely colored in red was 10 to 40%; 2: an area in which the surface of tomato was completely colored in red was 40 to 70%; 3: an area in which the surface of tomato was completely colored in red was 70% or more and the bottom area remained green; 4: an area in which the surface of tomato was most colored in red and only a part of (0 to 10%) the bottom area remained green; 5: the surface of tomato did not entirely color in green.
Source text: as §1
As illustrated in Example 1, in situ, in accordance with the methods of Preparation Examples 15, 16, 17, 18 and 22, five agents (1.0 mmol) such as 1-(2-phenylethyl)cyclopropene, 1-(3-phenylpropyl)cyclopropene, 1-(4-phenylbutyl)cyclopropene, 1-(5-phenylpentyl)cyclopropene and 1-hexylcyclopropene were prepared, 5.0 ml of xylene and 5.0 ml of water were added to the reaction solution, vigorously stirred for 5 minutes and stood. When the mixture was separated into an organic layer (upper layer) and an aqueous layer (lower layer), only the organic layer was collected and the aqueous layer was discarded. […] of hexane was added to the organic layer and homogeneously mixed to prepare a 1.0 mM oil-based formulation.
The tomatoes were screened in the same manner as in Experimental Example 1 and divided into 7 groups (n=4) including a non-treated group, a control group (solvent-treated group) and 5 agent groups. Tomatoes were treated with the previously prepared agent using a household sprayer such that the surface thereof was saturated. The tomatoes were stood at room temperature (25-30° C.) for 3 days and a reddening level thereof was evaluated based on grades of 0 to 5.

Regarding `C1=C(Cc2ccccc2)C1` [1-benzylcyclopropene], in data set [1], the “chemical stability (in words)” value is reported as “considerably unstable” and the “Stability (relative chemical stability, based on cyclopropenes having a chain length of 1)” value worked out at 1.

For the compound `CCCCCCC1=CC1` [(Hexyl), 1-hexylcyclopropene, reference compound], the “reddening level (grade 0 to 5)” value was 0 (an area in which the surface of tomato was colored in pink was 10% or less) (2×) and 1 (an area in which the surface of tomato was completely colored in red was 10 to 40%) and 2 (an area in which the surface of tomato was completely colored in red was 40 to 70%) with tomato [2] (100 μM, Day 0, room temperature (25-30° C.)); 1 (an area in which the surface of tomato was completely colored in red was 10 to 40%) (2×) and 3 (an area in which the surface of tomato was completely colored in red was 70% or more and the bottom area remained green) and 4 in the data set on tomato [2] (100 μM, Day 1, room temperature (25-30° C.)); 3 (an area in which the surface of tomato was completely colored in red was 70% or more and the bottom area remained green) (2×) and 4 and 5 with tomato [2] (100 μM, Day 2, room temperature (25-30° C.)); 4 and 5 (3×) in the data set on tomato [2] (100 μM, Day 3, room temperature (25-30° C.)); 0 (an area in which the surface of tomato was colored in pink was 10% or less) (2×) and 1 (an area in which the surface of tomato was completely colored in red was 10 to 40%) and 2 (an area in which the surface of tomato was completely colored in red was 40 to 70%) with tomato [2] (1.0 mM, Day 0, room temperature (25-30° C.)); 1 (an area in which the surface of tomato was completely colored in red was 10 to 40%) (2×) and 2 (an area in which the surface of tomato was completely colored in red was 40 to 70%) and 3 (an area in which the surface of tomato was completely colored in red was 70% or more and the bottom area remained green) in the data set with tomato [2] (1.0 mM, Day 1, room temperature (25-30° C.)). The “reddening level (grade 0 to 5)” value was 2 (an area in which the surface of tomato was completely colored in red was 40 to 70%) (2×) and 3 (an area in which the surface of tomato was completely colored in red was 70% or more and the bottom area remained green) and 4 in the data set with tomato [2] (1.0 mM, Day 2, room temperature (25-30° C.)); 3 (an area in which the surface of tomato was completely colored in red was 70% or more and the bottom area remained green) (2×) and 5 (2×) in the data set on tomato [2] (1.0 mM, Day 3, room temperature (25-30° C.)). The “Tomato results: reddening level (grade 0 to 5)” value in the data set with tomato [3] (Day 0, room temperature (25-30° C.)) was 0 (an area in which the surface of tomato was colored in pink was 10% or less) (2×) and 1 (an area in which the surface of tomato was completely colored in red was 10 to 40%) and 2 (an area in which the surface of tomato was completely colored in red was 40 to 70%); with tomato [3] (Day 1, room temperature (25-30° C.)) it was 1 (an area in which the surface of tomato was completely colored in red was 10 to 40%) (2×) and 2 (an area in which the surface of tomato was completely colored in red was 40 to 70%) and 3 (an area in which the surface of tomato was completely colored in red was 70% or more and the bottom area remained green); in the data set with tomato [3] (Day 2, room temperature (25-30° C.)), 3 (an area in which the surface of tomato was completely colored in red was 70% or more and the bottom area remained green) and 2 (an area in which the surface of tomato was completely colored in red was 40 to 70%) and 4 and 5; with tomato [3] (Day 3, room temperature (25-30° C.)) it was 4 (2×) and 5 (2×).

Regarding `COc1ccc(CC2=CC2)cc1` [A=—, Z=4-OCH, 1-(4-methoxybenzyl)cyclopropene], the “Stability (relative chemical stability, based on cyclopropenes having a chain length of 1)” value in data set [1] is given as ~1.
